Test results: article PMC3773999 (Bioorganic & medicinal chemistry, 2013)

Experiments:
hMC4R = hMC4R (Homo sapiens, UniProt P32245); conditions: saturation binding, Figure 2
melanocortin receptors = conditions: ref [28]; cited from earlier work

Chain of hMC4R (P32245 whole entry): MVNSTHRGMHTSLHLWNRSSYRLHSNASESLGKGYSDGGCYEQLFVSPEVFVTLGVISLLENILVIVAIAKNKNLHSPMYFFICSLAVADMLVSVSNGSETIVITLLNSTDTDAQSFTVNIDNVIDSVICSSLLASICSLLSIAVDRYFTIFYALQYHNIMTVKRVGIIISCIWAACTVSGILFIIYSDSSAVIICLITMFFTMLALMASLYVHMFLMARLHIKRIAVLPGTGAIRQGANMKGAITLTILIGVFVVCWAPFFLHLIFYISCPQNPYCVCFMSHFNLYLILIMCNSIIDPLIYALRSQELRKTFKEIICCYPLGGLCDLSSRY

Row | Compound | non-specific binding relative to probes 3 and 4 (hMC4R) [%] | off-rate (melanocortin receptors)
1 | N=C(N)NCCC[C@H](NC(=O)[C@@H](Cc1ccccc1)NC(=O)[C@H](Cc1c[nH]cn1)NC(=O)COCC(=O)NCCCOCCOCCOCCCNC(=O)CN(CCN(CCN(CC(=O)O)CC(=O)O)CC(=O)O)CC(=O)O)C(=O)N[C@@H](Cc1c[nH]c2ccccc12)C(N)=O [Probe 2, Eu-DTPA-PEGO-MSH(4)] | 20 | –
2 | Ac-Ser-Tyr-Ser-Nle-Glu-His-DPhe-Arg-Trp-Gly-Lys-Pro-Val-NH2 [NDP-α-MSH] | – | approximately eight
